Assay results published in article PMC10278063 (ACS Chemical Biology, 2023).
“And” between values parts separate entries of the source, which are not always exact repeats. Identical values can stand only once. No end group written: not given here. *: point of attachment. ClAc = O=C(CCl)*

These substances were tested on PSMD2.
Type: binding, human
“ClAc-FSRNAGFWARYC (also: sidechain bridge or staple (positions not given here)) [hit 3]” was tested, and the “ELISA S/N” value was 49.0 and > 30 and the “PSMD2 binding compared with MC3” value was “equivalent or better binding”. For “ClAc-FSALRHIAIFRYC (also: sidechain bridge or staple (positions not given here)) [hit 2]”, the “ELISA S/N” value was greater than 30 and the “PSMD2 binding compared with MC3” value was “equivalent or better binding”. With “ClAc-FRRNVNWWRLYC (also: sidechain bridge or staple (positions not given here)) [hit 5]” the “ELISA S/N” value was greater than 30 and the “PSMD2 binding compared with MC3” value was “equivalent or better binding”.
